Laboratory results as given in patent US20250144053A1, “A MIXTURE OF UREA, BIURET AND NITRATE AS A DIETARY NON-PROTEIN NITROGEN-SOURCE FOR RUMINANTS AND USES THEREOF” (Yara International ASA, priority 2022, published 2025).

How the values were obtained:
[1] = tested on: ruminal fluid (rumen microbes); experiment: In vitro methane production in batch culture (Example 1); type: cell-based, Angus crossbred steers; conditions: corn silage-based diet
Experimental: The in vitro incubations were conducted on three separate days (replicates). A representative sample of digesta was collected from different places in the rumen of ruminally cannulated steers and strained through 4 layers of cheesecloth, placed in pre-warmed thermos containers, and transported to the laboratory within 30 minutes after the collection. In the laboratory, the ruminal fluid from the two steers was maintained under constant CO2-flux and was combined in equal proportions. This combined ruminal fluid was mixed with McDougall's buffer (McDougall, 1948) with and without 0.077 g/liter of 10 wt. % ammonium sulfate enriched with ^15N in relation 1:4, and it was used as an inoculum. […] At the end of the 24 hours incubation, the final pH was recorded, the bottles were placed on ice to prevent further microbial fermentation and two 10-ml samples were collected and acidified by adding 20 μl of a 20 vol/vol % of H2SO4-solution and were frozen at minus 20° C. until further analysis. […]
The amount of methane produced was determined by measuring total gas production and the contribution of methane to it. The production of gas was recorded using an Ankom Gas Monitoring System from Ankom Technologies. […] A gas subsample was analyzed to measure methane concentration and calculate the total methane production during the fermentation. […]

[2] = tested on: crossbred yearling steers; experiment: Animal growth performance with NPN supplementation (Example 2); type: in vivo
Text: A total of 72 crossbred yearling steers [303 kg±29 kg initial body weight (BW) were stratified by body weight (BW) and randomly allocated to three treatments. All steers consumed a basal diet of corn silage, cotton-gin trash, and a premix of vitamins and minerals.
The steers were housed in pens (8 steers/pen, 3 pens/treatment). The steers were supplemented with three different NPN-sources on an isonitrogenous basis, considering as reference the N provided by urea when included at 1 wt. % of the diet in dry matter (DM-basis.
In Table 5, the composition of the basal diet supplemented with three different types of NPN, i.e. urea (Urea) (46% N, Yara International), a mixture of urea and biuret (UB) (41% N) and a mixture of urea, biuret and nitrate according to the present disclosure (“UBN”) (35% N, 21.3% NO3) is shown.
From day −17 to day −16 relative to the beginning of the experimental period, the steers received 20% of their total supplemental NPN.
From day −15 to day −12 relative to the beginning of the experimental period, the steers received 40% of their total supplemental NPN.
From day −11 to day −8 relative to the beginning of the experimental period, the steers received 60% of their total supplemental NPN.
From day −7 to day −3 relative to the beginning of the experimental period, the steers received 80% of their total supplemental NPN.
From day −2 to the beginning of the experimental period (day 0), the steers received 100% of their total supplemental NPN.
The gain to feed ratio (G: F) was computed as the ratio of the average daily gain (ADG) to daily dry matter intake (DMI). The feed intake was recorded daily. The individual intake was determined via the GrowSafe® intake monitoring system. In cattle management, GrowSafe Systems is a commonly used tool to closely monitor individual animal feeding data using radio frequency identification (RFID) tag technology. The animals are equipped with a unique RFID tag that is read by the feed bunks each time the animal lowers its head into the bunk to consume feed. Average daily weight gain (ADG) and feed efficiency were calculated during the performance evaluation. The ADG was determined by the difference between the final BW and the initial BW divided by the number of days of the performance evaluation (56 days). The initial BW was calculated as the average unshrunk BW of heifers on days 16 and 17. The final BW was the average unshrunk BW measured on days 72 and 73. The unshrunk BW was obtained every 14 days.
In Table 6, the effect of NPN supplementation with Urea, UB and UBN on growth performance is shown. More in particular, the initial and the final BW and the ADG, all expressed in kg, the dry matter intake (DMI) expressed in kg/day and in percentage of BW, the gain to feed ratio (G:F) expressed in kg/kg, the net energy of gain (NEg) expressed in Mcal/kg of DM and the plasma urea nitrogen (PUN) expressed in […] are shown.

For `NC(N)=O` [Urea, urea], the “Methane production, mM/g OMd” value ([1]; per g organic matter digested) was 6.86 mM/g OMd, the “Methane production, mM/g OMi” value ([1]; per g organic matter incubated) was 1.23 mM/g OMi and the ADG ([2]; days 0-14) was 0.78 kg. For the same compound, the “G:F” value ([2]; days 0-14) was 0.10 kg/kg, the ADG ([2]; days 0-28) was 0.81 kg and the “G:F” value ([2]; days 0-28) was 0.11 kg/kg. The “G:F” value ([2]; days 0-42) was 0.14 kg/kg, the “G:F” value ([2]; days 0-56) was 0.14 kg/kg and the NEg ([2]; net energy of gain) was 0.55 Mcal/kg of DM.
